Assay: excess molar enthalpy (molar enthalpy of mixing); xn = mol fraction of the nth substance listed
Conditions: 101.3 kPa, Liquid, Flow calorimetry

CCOC(=O)CC(=O)OCC [diethyl 1,3-propanedioate] + CO
excess molar enthalpy [kcal/mol]
Conditions | 288.2 K | 298.2 K | 313.2 K | 328.2 K
x1 = 0.05 | 0.066 | 0.0734 | 0.081 | 0.0872
x1 = 0.0996 | 0.123 | 0.133 | 0.146 | 0.161
x1 = 0.1496 | 0.167 | 0.182 | 0.203 | 0.221
x1 = 0.2011 | 0.205 | 0.224 | 0.249 | 0.274
x1 = 0.2515 | 0.236 | 0.259 | 0.286 | 0.316
x1 = 0.3009 | 0.261 | 0.286 | 0.318 | 0.349
x1 = 0.3506 | 0.281 | 0.307 | 0.343 | 0.376
x1 = 0.3988 | 0.299 | 0.325 | 0.361 | 0.394
x1 = 0.4486 | 0.31 | 0.335 | 0.374 | 0.407
x1 = 0.4993 | 0.313 | 0.341 | 0.378 | 0.408
x1 = 0.55 | 0.315 | 0.343 | 0.376 | 0.409
x1 = 0.5995 | 0.307 | 0.337 | 0.369 | 0.396
x1 = 0.6464 | 0.3 | 0.323 | 0.355 | 0.38
x1 = 0.698 | 0.282 | 0.304 | 0.332 | 0.353
x1 = 0.7453 | 0.261 | 0.283 | 0.303 | 0.316
x1 = 0.7969 | 0.234 | 0.243 | 0.26 | 0.278
x1 = 0.8536 | 0.19 | 0.184 | 0.202 | 0.213
x1 = 0.903 | 0.139 | 0.14 | 0.144 | 0.145
x1 = 0.95 | 0.0801 | 0.0772 | 0.0719 | 0.0473

CCOC(=O)CC(=O)OCC [diethyl 1,3-propanedioate] + CCO
excess molar enthalpy [kcal/mol]
Conditions | 288.2 K | 298.2 K | 313.2 K | 328.2 K
x1 = 0.0501 | 0.0949 | 0.101 | 0.114 | 0.119
x1 = 0.1004 | 0.168 | 0.185 | 0.205 | 0.222
x1 = 0.1491 | 0.233 | 0.247 | 0.279 | 0.304
x1 = 0.1995 | 0.282 | 0.301 | 0.337 | 0.366
x1 = 0.2507 | 0.318 | 0.346 | 0.387 | 0.42
x1 = 0.2985 | 0.348 | 0.379 | 0.425 | 0.46
x1 = 0.3517 | 0.374 | 0.407 | 0.454 | 0.491
x1 = 0.399 | 0.39 | 0.425 | 0.473 | 0.51
x1 = 0.4509 | 0.401 | 0.435 | 0.486 | 0.522
x1 = 0.4985 | 0.406 | 0.442 | 0.489 | 0.527
x1 = 0.5503 | 0.404 | 0.437 | 0.485 | 0.517
x1 = 0.6013 | 0.395 | 0.428 | 0.469 | 0.499
x1 = 0.6504 | 0.38 | 0.41 | 0.448 | 0.477
x1 = 0.6967 | 0.359 | 0.386 | 0.422 | 0.442
x1 = 0.7465 | 0.328 | 0.352 | 0.38 | 0.396
x1 = 0.8002 | 0.284 | 0.302 | 0.322 | 0.333
x1 = 0.8497 | 0.232 | 0.242 | 0.259 | 0.269
x1 = 0.9027 | 0.164 | 0.172 | 0.179 | 0.186
x1 = 0.9498 | 0.0896 | 0.0946 | 0.105 | 0.101

Reference: the NIST ThermoML archive (doi:10.1021/je9003806)
